Reference: ChEMBL document CHEMBL1201862, “PubChem BioAssay data set” (2004)
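Tested at 5 concentrations; 48 h exposure; 96-well plates; endpoints linearly interpolated, else capped at highest concentration. Here, GI50 denotes the concentration required for 50% inhibition of growth.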 The source made the active and inactive calls. No stated cut-off is given here; in the data, active = GI50 up to about 1.1 µM and inactive = higher.

Legend:
Experiment in all cases: growth of human tumour cells (NCI), 48 h
ACHN = test system: ACHN
CCRF-CEM = test system: CCRF-CEM
COLO 205 = test system: COLO 205
DU-145 = test system: DU-145
K562 = test system: K562
LOX IMVI = test system: LOX IMVI
M14 = test system: M14
MDA-MB-231 = test system: MDA-MB-231
MDA-MB-435 = test system: MDA-MB-435
NCI-H460 = test system: NCI-H460
NCI-H522 = test system: NCI-H522
PC-3 = test system: PC-3
SK-MEL-2 = test system: SK-MEL-2
SK-MEL-5 = test system: SK-MEL-5
SN12C = test system: SN12C
SNB-19 = test system: SNB-19
SNB-75 = test system: SNB-75
SR = test system: SR
U-251 = test system: U-251
HOP-92 = test system: HOP-92

SMILES	GI50 (ACHN)	GI50 (CCRF-CEM)	GI50 (COLO 205)	GI50 (DU-145)	GI50 (K562)	GI50 (LOX IMVI)	GI50 (M14)	GI50 (MDA-MB-231)	GI50 (MDA-MB-435)	GI50 (NCI-H460)	GI50 (NCI-H522)	GI50 (PC-3)	GI50 (SK-MEL-2)	GI50 (SK-MEL-5)	GI50 (SN12C)	GI50 (SNB-19)	GI50 (SNB-75)	GI50 (SR)	GI50 (U-251)	GI50 (HOP-92)
COc1cccc(C2C3=C(COC3=O)Oc3cc4c(cc32)OCO4)c1 (configuration not stated)	0.0432 µM (active)	0.0192 µM (active)	0.0233 µM (active)	0.0375 µM (active)	< 0.0135 µM (active)	< 0.0155 µM (active)	0.0307 µM (active)	0.0718 µM (active)	< 0.01 µM (active)	0.0267 µM (active)	< 0.01 µM (active)	0.0196 µM (active)	< 0.0247 µM (active)	0.0175 µM (active)	0.078 µM (active)	0.187 µM (active)	0.0194 µM (active)	< 0.0135 µM (active)	0.0445 µM (active)	
CCOC(=O)CC/C(C)=N\n1c(Cc2ccc(Cl)cc2)n[nH]c1=O	> 100 µM (inactive)			> 100 µM (inactive)	> 100 µM (inactive)	> 100 µM (inactive)	> 100 µM (inactive)	> 100 µM (inactive)	> 100 µM (inactive)	86.1 µM (inactive)	> 100 µM (inactive)	> 100 µM (inactive)	> 100 µM (inactive)	> 100 µM (inactive)	> 100 µM (inactive)	> 100 µM (inactive)	> 100 µM (inactive)	> 100 µM (inactive)	> 100 µM (inactive)	
N#C/C(N)=C(C#N)/N=C/N	> 100 µM (inactive)	> 100 µM (inactive)	> 100 µM (inactive)	> 100 µM (inactive)	> 100 µM (inactive)	> 100 µM (inactive)	> 100 µM (inactive)	> 100 µM (inactive)	> 100 µM (inactive)	> 100 µM (inactive)		> 100 µM (inactive)	> 100 µM (inactive)	> 100 µM (inactive)	> 100 µM (inactive)		> 100 µM (inactive)	> 100 µM (inactive)	> 100 µM (inactive)	> 100 µM (inactive)
CCOC(=O)c1ccc(Nc2cnc3ccc(C(F)(F)F)cc3n2)cc1	15.2 µM (inactive)	12.1 µM (inactive)	15.3 µM (inactive)	18.2 µM (inactive)	19 µM (inactive)	15.8 µM (inactive)	22.7 µM (inactive)	23.4 µM (inactive)	21.5 µM (inactive)	14.2 µM (inactive)		19.2 µM (inactive)	15.1 µM (inactive)	15.5 µM (inactive)	13.9 µM (inactive)	28.1 µM (inactive)	17.9 µM (inactive)	10.3 µM (inactive)	16.8 µM (inactive)	6.18 µM (inactive)
Oc1ccc(-c2nc3ccc(Cl)cc3s2)cc1	76.7 µM (inactive)	5.35 µM (inactive)	17.7 µM (inactive)	17.3 µM (inactive)	28.2 µM (inactive)	21.4 µM (inactive)	> 100 µM (inactive)	22.6 µM (inactive)	18.5 µM (inactive)	18.8 µM (inactive)	16.3 µM (inactive)	20.4 µM (inactive)	18.4 µM (inactive)	18.2 µM (inactive)	19.4 µM (inactive)	20.2 µM (inactive)		23.7 µM (inactive)	19.7 µM (inactive)	
COc1cc2c(c(OC)c1OC)-c1ccc(SC)c(=O)cc1[C@@H](O)CC2	0.0011 µM (active)	0.00031 µM (active)	0.000408 µM (active)	0.000665 µM (active)	0.00948 µM (active)	0.00078 µM (active)	0.000333 µM (active)	0.00115 µM (active)	0.000122 µM (active)	0.000586 µM (active)	0.00065 µM (active)	0.000353 µM (active)	0.00367 µM (active)		0.00265 µM (active)	0.00104 µM (active)	0.01 µM (active)	0.00258 µM (active)	0.000378 µM (active)	
CC(=O)NCCc1c(-c2[nH]c3ccccc3c2CCNC(C)=O)[nH]c2ccccc12	66.7 µM (inactive)	> 100 µM (inactive)	> 100 µM (inactive)	> 100 µM (inactive)	> 100 µM (inactive)	> 100 µM (inactive)		82.4 µM (inactive)	> 100 µM (inactive)	42.2 µM (inactive)		> 100 µM (inactive)	> 100 µM (inactive)	> 100 µM (inactive)	> 100 µM (inactive)	> 100 µM (inactive)	47.6 µM (inactive)	> 100 µM (inactive)	> 100 µM (inactive)	22.2 µM (inactive)
